# Test results from ChEMBL document CHEMBL3797059 (Bioorg Med Chem Lett, 2016).
# The source made the active and inactive calls. The calls are words filed in the database; no cut-off is given here.
# Tests used:
# [1] = target: T1, Fibroblast growth factor receptor 2 (Homo sapiens, UniProt P21802); assay: Inhibition of recombinant FGFR2 (unknown origin) using (Glu,Tyr)4:1 as substrate incubated for 60 mins by ELISA
# Target sequence in this assay (P21802 whole entry): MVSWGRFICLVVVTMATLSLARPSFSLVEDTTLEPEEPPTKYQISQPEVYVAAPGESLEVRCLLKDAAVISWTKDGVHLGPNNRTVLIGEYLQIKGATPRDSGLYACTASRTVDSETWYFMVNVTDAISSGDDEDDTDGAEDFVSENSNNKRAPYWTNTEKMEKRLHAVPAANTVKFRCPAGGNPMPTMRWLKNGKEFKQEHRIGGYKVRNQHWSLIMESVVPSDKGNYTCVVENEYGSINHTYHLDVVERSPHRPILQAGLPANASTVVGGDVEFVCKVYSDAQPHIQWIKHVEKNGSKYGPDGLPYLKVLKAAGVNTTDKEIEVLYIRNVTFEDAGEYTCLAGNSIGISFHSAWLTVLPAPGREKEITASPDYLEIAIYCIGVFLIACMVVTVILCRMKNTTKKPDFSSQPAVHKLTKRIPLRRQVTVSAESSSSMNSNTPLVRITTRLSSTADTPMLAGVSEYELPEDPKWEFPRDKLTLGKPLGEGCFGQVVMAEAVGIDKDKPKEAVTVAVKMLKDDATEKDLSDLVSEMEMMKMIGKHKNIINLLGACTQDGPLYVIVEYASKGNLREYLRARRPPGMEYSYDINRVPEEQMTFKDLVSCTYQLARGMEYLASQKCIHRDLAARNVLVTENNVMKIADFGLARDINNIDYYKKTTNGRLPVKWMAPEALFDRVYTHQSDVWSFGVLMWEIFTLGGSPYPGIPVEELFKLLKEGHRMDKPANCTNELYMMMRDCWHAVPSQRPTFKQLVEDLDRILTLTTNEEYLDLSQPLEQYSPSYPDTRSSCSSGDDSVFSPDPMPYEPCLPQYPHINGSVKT
# [2] = target: Vascular endothelial growth factor receptor 2 (Homo sapiens, UniProt P35968); assay: Inhibition of recombinant VEGFR2 (unknown origin) using (Glu,Tyr)4:1 as substrate incubated for 60 mins by ELISA
# [3] = target: T1, Fibroblast growth factor receptor 2; assay: Inhibition of recombinant FGFR2 (unknown origin) at 10 nM using (Glu,Tyr)4:1 as substrate incubated for 60 mins by ELISA
# Target sequence in this assay (P21802 22-821 limits assumed): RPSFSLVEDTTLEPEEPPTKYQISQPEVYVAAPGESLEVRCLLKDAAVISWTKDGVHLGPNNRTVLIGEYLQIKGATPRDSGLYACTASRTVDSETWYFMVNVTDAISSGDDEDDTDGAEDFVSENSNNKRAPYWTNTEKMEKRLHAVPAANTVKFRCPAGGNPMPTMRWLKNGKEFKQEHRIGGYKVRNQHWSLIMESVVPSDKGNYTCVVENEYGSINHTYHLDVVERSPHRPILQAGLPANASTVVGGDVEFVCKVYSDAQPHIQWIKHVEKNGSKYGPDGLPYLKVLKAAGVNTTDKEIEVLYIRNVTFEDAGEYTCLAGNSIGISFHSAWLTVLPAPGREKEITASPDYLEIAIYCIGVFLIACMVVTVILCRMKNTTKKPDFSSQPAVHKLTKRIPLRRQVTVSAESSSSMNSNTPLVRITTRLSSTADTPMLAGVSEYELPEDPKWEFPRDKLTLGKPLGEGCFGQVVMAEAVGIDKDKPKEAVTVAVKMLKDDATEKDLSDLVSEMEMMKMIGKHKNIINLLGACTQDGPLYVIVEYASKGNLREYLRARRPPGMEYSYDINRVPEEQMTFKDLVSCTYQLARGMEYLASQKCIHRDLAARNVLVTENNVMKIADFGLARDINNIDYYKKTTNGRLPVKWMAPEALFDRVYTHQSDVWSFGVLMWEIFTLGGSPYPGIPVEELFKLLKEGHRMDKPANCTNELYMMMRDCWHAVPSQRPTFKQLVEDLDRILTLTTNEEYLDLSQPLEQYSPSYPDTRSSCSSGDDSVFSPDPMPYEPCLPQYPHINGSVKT
# [4] = target: T1, Fibroblast growth factor receptor 2; assay: Inhibition of FGFR2 (unknown origin) at 1 nM using (Glu,Tyr)4:1 as substrate incubated for 60 mins by ELISA
# Target sequence in this assay (P21802 22-821 limits assumed): as above
# [5] = target: T2, Fibroblast growth factor receptor 1 (Homo sapiens, UniProt P11362); assay: Inhibition of FGFR1 phosphorylation in human KG1 cells assessed as reduction of phospho-ERK level at 0.4 to 10 nM incubated for 2 hrs by Western blot analysis; type: cell-based; conditions: KG-1
# Target sequence in this assay (P11362 22-822 limits assumed): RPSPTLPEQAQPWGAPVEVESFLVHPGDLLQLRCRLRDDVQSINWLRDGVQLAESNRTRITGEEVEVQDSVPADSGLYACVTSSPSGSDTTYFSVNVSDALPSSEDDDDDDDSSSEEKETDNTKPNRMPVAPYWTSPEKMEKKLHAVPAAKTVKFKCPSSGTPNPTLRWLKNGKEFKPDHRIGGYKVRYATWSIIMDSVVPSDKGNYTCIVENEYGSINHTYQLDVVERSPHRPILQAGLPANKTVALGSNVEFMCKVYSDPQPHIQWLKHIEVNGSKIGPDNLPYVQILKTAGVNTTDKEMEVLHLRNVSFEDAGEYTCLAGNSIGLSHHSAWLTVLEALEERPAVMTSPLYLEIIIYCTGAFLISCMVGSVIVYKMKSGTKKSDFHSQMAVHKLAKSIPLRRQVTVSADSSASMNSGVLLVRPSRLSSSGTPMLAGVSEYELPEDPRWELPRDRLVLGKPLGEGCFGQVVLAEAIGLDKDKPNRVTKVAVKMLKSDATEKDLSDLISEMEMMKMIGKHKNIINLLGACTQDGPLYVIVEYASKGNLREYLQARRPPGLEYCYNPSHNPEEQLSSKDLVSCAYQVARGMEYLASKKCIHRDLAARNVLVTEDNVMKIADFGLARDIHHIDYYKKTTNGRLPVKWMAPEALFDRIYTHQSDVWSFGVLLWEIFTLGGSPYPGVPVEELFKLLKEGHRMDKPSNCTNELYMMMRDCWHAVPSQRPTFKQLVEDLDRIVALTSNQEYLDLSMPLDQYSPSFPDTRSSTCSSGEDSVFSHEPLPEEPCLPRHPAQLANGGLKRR
# [6] = target: Fibroblast growth factor receptor 3 (Homo sapiens, UniProt P22607); assay: Inhibition of recombinant FGFR3 (unknown origin) using (Glu,Tyr)4:1 as substrate incubated for 60 mins by ELISA
# [7] = target: T2, Fibroblast growth factor receptor 1; assay: Inhibition of FGFR1 phosphorylation in human KG1 cells incubated for 2 hrs by Western blot analysis; type: cell-based; conditions: KG-1
# Target sequence in this assay (P11362 22-822 limits assumed): as above
# [8] = target: T2, Fibroblast growth factor receptor 1; assay: Inhibition of recombinant FGFR1 (unknown origin) using (Glu,Tyr)4:1 as substrate incubated for 60 mins by ELISA
# Target sequence in this assay (P11362 whole entry): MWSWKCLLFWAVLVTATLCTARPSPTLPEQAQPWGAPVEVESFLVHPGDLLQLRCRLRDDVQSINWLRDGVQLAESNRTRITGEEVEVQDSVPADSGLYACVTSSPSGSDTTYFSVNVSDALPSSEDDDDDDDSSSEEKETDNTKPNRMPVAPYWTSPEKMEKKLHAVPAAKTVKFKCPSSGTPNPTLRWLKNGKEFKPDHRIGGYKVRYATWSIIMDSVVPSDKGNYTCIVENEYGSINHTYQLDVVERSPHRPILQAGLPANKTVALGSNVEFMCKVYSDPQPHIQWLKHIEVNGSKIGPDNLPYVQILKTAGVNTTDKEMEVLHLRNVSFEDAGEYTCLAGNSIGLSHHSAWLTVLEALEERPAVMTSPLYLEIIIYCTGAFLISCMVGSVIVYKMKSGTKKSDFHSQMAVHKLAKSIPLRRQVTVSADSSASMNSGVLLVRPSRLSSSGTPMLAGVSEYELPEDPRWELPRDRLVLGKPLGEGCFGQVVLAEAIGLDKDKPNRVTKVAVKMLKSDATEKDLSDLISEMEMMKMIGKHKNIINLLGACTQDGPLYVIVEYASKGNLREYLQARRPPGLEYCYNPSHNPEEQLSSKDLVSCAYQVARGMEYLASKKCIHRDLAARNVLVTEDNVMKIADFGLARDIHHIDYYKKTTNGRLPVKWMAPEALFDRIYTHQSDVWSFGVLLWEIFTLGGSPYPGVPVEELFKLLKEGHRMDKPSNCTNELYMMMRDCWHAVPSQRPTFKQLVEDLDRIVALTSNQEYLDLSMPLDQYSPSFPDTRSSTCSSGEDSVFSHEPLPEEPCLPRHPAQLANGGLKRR
# [9] = target: Fibroblast growth factor receptor 4 (Homo sapiens, UniProt P22455); assay: Inhibition of recombinant FGFR4 (unknown origin) using (Glu,Tyr)4:1 as substrate incubated for 60 mins by ELISA
# [10] = target: T2, Fibroblast growth factor receptor 1; assay: Inhibition of FGFR1 phosphorylation in human KG1 cells assessed as reduction of phospho-PLCgamma level at 0.4 to 10 nM incubated for 2 hrs by Western blot analysis; type: cell-based; conditions: KG-1
# Target sequence in this assay (P11362 22-822 limits assumed): as the sequence (P11362 22-822 limits assumed) above
# Sequence of Vascular endothelial growth factor receptor 2 (P35968 whole entry): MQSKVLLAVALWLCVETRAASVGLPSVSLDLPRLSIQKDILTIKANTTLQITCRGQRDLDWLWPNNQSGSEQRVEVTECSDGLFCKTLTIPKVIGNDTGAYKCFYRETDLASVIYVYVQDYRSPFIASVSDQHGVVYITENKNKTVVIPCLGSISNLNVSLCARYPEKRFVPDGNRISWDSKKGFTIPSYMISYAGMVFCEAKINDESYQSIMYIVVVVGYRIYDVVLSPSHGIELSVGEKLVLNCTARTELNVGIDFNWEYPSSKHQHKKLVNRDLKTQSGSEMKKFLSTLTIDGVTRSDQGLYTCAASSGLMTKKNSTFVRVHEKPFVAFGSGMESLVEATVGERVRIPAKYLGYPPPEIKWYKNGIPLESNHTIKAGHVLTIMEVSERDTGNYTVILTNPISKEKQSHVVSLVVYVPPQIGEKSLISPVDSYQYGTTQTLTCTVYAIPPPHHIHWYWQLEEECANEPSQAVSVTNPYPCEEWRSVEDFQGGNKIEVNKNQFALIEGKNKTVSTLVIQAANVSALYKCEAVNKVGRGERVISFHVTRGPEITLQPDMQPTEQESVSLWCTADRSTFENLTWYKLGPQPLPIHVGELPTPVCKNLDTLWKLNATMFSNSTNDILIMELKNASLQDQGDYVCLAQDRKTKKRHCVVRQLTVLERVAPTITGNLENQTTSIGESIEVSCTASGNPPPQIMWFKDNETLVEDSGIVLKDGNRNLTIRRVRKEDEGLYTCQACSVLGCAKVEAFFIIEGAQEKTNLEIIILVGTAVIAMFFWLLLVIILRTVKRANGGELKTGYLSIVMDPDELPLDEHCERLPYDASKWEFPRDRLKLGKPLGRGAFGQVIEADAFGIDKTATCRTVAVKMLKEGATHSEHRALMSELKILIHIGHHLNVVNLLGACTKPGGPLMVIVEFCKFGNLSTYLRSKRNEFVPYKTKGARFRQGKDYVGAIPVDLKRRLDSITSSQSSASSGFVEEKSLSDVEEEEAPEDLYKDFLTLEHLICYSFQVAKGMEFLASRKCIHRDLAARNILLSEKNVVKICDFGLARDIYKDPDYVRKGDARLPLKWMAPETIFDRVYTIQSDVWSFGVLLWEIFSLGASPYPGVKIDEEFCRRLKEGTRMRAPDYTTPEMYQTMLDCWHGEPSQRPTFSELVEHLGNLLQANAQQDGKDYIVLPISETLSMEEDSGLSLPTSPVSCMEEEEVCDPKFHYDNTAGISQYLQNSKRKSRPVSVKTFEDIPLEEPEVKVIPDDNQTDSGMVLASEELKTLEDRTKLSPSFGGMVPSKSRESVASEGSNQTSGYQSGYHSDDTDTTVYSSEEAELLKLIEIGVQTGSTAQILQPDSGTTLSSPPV
smiles,measurement,setting,value
CCN1CCN(c2ccc3c(Nc4cc(CCc5cc(OC)cc(OC)c5)[nH]n4)nc(NCc4cc(C)no4)nc3c2)CC1,IC50,[1],< 10 nM
CCc1nc(Nc2cc(CCc3cc(OC)cc(OC)c3)[nH]n2)c2ccc(N3CCN(CC)CC3)cc2n1,IC50,[2],35.8 nM
COc1cc(CCc2cc(Nc3ncnc4cc(N5CCN(S(=O)(=O)c6ccc(C)cc6)CC5)ccc34)n[nH]2)cc(OC)c1,inhibition,[3],41.8%
COc1cc(CCc2cc(Nc3ncnc4cc(NCCN5CCOCC5)ccc34)n[nH]2)cc(OC)c1,IC50,[2],> 100 nM
COc1cc(CCc2cc(Nc3ncnc4cc(N5CCCCC5)ccc34)n[nH]2)cc(OC)c1,inhibition,[4],87.4%
CCN1CCN(c2ccc3c(Nc4cc(CCc5c(Cl)c(OC)cc(OC)c5Cl)[nH]n4)ncnc3c2)CC1,IC50,[2],17.5 nM
COc1cc(CCc2cc(Nc3ncnc4cc(OC)ccc34)n[nH]2)cc(OC)c1,inhibition,[4],16.9%
same,inhibition,[3],73.3%
COCCOc1ccc2c(Nc3cc(CCc4cc(OC)cc(OC)c4)[nH]n3)ncnc2c1,IC50,[2],> 100 nM
COc1cc(CCc2cc(Nc3ncnc4cc(N5CCN6CCCCC6C5)ccc34)n[nH]2)cc(OC)c1 (stereo unspecified),inhibition,[5],Active
same,IC50,[2],21.5 nM
same,IC50,[6],5 nM
same,inhibition,[7],Dose-dependent effect
same,IC50,[8],1 nM
same,IC50,[9],52.7 nM
same,inhibition,[10],Active
